According to publication PMC9154192 (PLoS Biology, 2022):
Converted amounts (≈) assume the structure as drawn.

Tests used:
Type in all cases: cell-based, Mycobacterium tuberculosis
[1] = test system: PP2S-resistant M. tuberculosis
[2] = test system: PP1S-resistant M. tuberculosis
M. tuberculosis H37Rv = details: at 200 μg/ml and above

Row | SMILES | MIC [1] | MIC [2] | occurrence of resistant strains (M. tuberculosis H37Rv)
1 | CC[C@@H](CO)NCCN[C@@H](CC)CO [EMB, ethambutol] | 1.6 µg/mL (≈ 7.83 µM) | 1.6 µg/mL (≈ 7.83 µM) | –
2 | NNC(=O)c1ccncc1 [INH, isoniazid, reference compound] | 0.4 µg/mL (≈ 2.92 µM) | 0.2 µg/mL (≈ 1.46 µM) | –
3 | COC(=O)[C@@H]1CCC(=O)N1Cc1cc2ccc(OC)cc2c2cc(OC)c(OC)cc12 [PP1S, (S)-N-[(2,3,6-Trimethoxy-10-phenanthryl)methyl]-pyroglutamic acid methyl ester] | > 100 µg/mL | > 100 µg/mL | –
4 | CCCCOc1ccc2cc(CN3C(=O)CC[C@H]3C(=O)OC)c3cc(OC)c(OC)cc3c2c1 [PP2S, Methyl (S)-1-((3-butoxy-6,7-dimethoxyphenanthren-9-yl)methyl)-5-oxopyrrolidine-2-carboxylate] | > 100 µg/mL | > 100 µg/mL | did not occur directly
5 | COC(=O)[C@@H]1CCC(=O)N1Cc1cc2ccc(OCc3ccccc3)cc2c2cc(OC)c(OC)cc12 [PP3S, Methyl (S)-1-{[3-(Benzyloxy)-6,7-dimethoxy-9-phenanthryl]methyl}-5-oxopyrrolidine-2-carboxylate] | > 100 µg/mL | > 100 µg/mL | –
6 | NC(=O)c1cnccn1 [PZA, pyrazinamide] | > 100 µg/mL | > 100 µg/mL | –
7 | CO[C@H]1/C=C/O[C@@]2(C)Oc3c(C)c(O)c4c(O)c(c(/C=N/N5CCN(C)CC5)c(O)c4c3C2=O)NC(=O)/C(C)=C\C=C\[C@H](C)[C@H](O)[C@@H](C)[C@@H](O)[C@@H](C)[C@H](OC(C)=O)[C@@H]1C [RIF, rifampicin, reference compound] | 0.2 µg/mL (≈ 0.243 µM) | 0.1 µg/mL (≈ 0.122 µM) | –
8 | [H]/N=C(/N)N[C@H]1[C@H](O)[C@@H](O)[C@H](O[C@@H]2O[C@@H](C)[C@](O)(C=O)[C@H]2O[C@@H]2O[C@@H](CO)[C@H](O)[C@@H](O)[C@@H]2NC)[C@@H](N/C(N)=N\[H])[C@@H]1O [STR, streptomycin] | 0.4 µg/mL (≈ 0.688 µM) | 0.2 µg/mL (≈ 0.344 µM) | –
